From patent US20240124486A1, “MACROCYCLIC TLR7 AGONIST, PREPARATION METHOD THEREFOR, PHARMACEUTICAL COMPOSITION AND USE THEREOF” (SHANGHAI VISONPHARMA CO., LTD., priority 2020, published 2024)

How the values were obtained:
[1] = test system: human peripheral blood mononuclear cells; experiment: IFN-α production by human peripheral blood mononuclear cells stimulated by compounds (ELISA); format: cell-based; settings: human PBMC, about 8 hours, supernatant ELISA
Experimental: • 1. The frozen human peripheral blood mononuclear cells (Miaotong Biotechnology Co., LTD., PB010C) were dissolved in water bath at 37° C. After counting, the cells were diluted to 0.2M/mL, and 150 uL/well was added to the 96-well cell culture plate, and the cells were incubated for 40 hours. • 2. The test compounds were weighed and prepared with DMSO at a concentration of 10 mM. DMSO was used to dilute the test compounds by a 10-fold gradient, with a total of four concentration gradients. The highest concentration was 400 μM. • 3. The test compounds, DMSO control and positive controls were diluted 100 times with cell culture medium (RPMI 1640 cell medium, Gibco), and 50 μL was added to 96-well cell culture plates. • 4. The cells were incubated at 37° C. for about 8 hours, and the supernatant was collected by centrifugation. The level of IFN-α in the supernatant was determined by ELISA (IFN-α ELISA kit, Dakewe). • 5. Light absorption at 450 nm was measured by microplate reader, and IFN-α level in culture supernatant was quantified according to the standard curve.

[2] = target: T1, human TLR7 (Homo sapiens, UniProt Q9NYK1); experiment: Agonistic activity on human TLR7 in HEK-Blue hTLR7 cell line (QUANTI-Blue reporter); format: cell-based; settings: HEK-Blue hTLR7 cells, 16-22 h incubation, absorption at 630 nm; read-out: EC50 value of the agonistic effect on human TLR7
T1 construct: host or cells: HEK-Blue hTLR7 (HEK293-derived reporter cells)
T1 sequence (Q9NYK1 27-1049): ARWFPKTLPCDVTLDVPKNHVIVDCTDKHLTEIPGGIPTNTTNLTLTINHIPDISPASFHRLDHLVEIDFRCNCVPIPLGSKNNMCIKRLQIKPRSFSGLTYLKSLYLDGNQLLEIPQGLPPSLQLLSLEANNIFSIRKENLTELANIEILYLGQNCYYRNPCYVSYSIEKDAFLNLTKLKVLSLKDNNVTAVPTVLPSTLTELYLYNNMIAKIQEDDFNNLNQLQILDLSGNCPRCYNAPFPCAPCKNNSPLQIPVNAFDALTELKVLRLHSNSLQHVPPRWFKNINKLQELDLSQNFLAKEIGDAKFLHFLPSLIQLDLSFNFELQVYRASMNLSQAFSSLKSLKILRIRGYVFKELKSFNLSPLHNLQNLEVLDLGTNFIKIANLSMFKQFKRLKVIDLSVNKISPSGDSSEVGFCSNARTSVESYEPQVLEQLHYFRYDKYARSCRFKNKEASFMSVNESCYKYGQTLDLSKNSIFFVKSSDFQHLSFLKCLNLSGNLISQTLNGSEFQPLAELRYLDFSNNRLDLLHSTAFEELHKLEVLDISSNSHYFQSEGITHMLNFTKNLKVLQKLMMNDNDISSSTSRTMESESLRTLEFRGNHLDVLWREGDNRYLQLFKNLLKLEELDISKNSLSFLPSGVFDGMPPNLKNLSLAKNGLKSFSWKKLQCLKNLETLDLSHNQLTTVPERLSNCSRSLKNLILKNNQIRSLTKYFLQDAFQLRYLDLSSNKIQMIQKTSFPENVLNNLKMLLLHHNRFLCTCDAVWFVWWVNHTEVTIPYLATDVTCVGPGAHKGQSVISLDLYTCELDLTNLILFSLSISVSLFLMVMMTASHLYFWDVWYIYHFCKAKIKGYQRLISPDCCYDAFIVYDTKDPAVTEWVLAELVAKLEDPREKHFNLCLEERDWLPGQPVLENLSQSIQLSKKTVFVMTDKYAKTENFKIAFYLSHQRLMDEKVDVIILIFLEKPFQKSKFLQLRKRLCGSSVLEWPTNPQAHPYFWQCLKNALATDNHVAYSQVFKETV
Experimental: The TLR7 agonistic activity of the compounds of the invention in HEK-Blue™ hTLR7 cell line with stable expression of human TLR7 were assayed using the following method: • 1. Weighed the test compounds and prepared stock solutions with DMSO (Sigma) at a concentration of 10 mM. […] The highest concentration was 1 mM. • 2. The test compounds and DMSO control were diluted 10-fold in DPBS buffer (Gibco) and then added to a 96-well cell culture plate (Corning) at a volume of 20 μL/well. • 3. HEK-Blue™ hTLR7 cells (Invivogen) were digested with cell separation solution (Gibco), and counted (TC-20 cell counter, Bio-rad). Cells were diluted to 4.4E5/ml using DMEM cell medium (Gibco). Added the cells to a 96-well cell culture plate at a volume of 180 μL/well. The cells were incubated for 16-22 h at 37° C. in a 5% CO2 incubator. • 4. Prepared QUANTI-Blue detection reagent (Invivogen), and added into a new 96-well plate at a volume of 180 μL/well. Twenty μL of cell culture supernatant was transferred from the cell culture plate and added to the 96-well plate and incubated at 37° C. for 1-3 hours. • 5. Neo2 multifunctional microplate reader (Bio-Tek) was used to measure the optical absorption at 630 nm, and the EC50 was calculated by GraphPad Prism.
The agonistic effect of the compounds of the invention on human TLR7 can be determined by the above experiments, and the measured EC50 value is shown in Table 1.

EC50 [2] [µM] | SMILES | IFN-α concentration post stimulation ([1]; compound 0.1 nM) [pg/mL] | IFN-α concentration post stimulation ([1]; compound 1 nM) [pg/mL] | IFN-α concentration post stimulation ([1]; compound 10 nM) [pg/mL]
0.105 | CC(C)(C(=O)O)N1CCc2c3cc(cc2C1)Cn1c(=O)[nH]c2c(N)nc(nc21)OCCCCC3 [Compound I-26] | 12 | 11 | 96
0.01 | CC(C)N1CCc2c3cc(cc2C1)Cn1c(=O)[nH]c2c(N)nc(nc21)OCCCCC3 [Compound I-35] | 251 | 2767 | 2776
0.01 | Nc1nc2nc3c1[nH]c(=O)n3Cc1cc(c3c(c1)CN(C1CCC1)CC3)CCCCCO2 [Compound I-37] | 428 | 1973 | 2078
0.011 | COCCN1CCc2c3cc(cc2C1)Cn1c(=O)[nH]c2c(N)nc(nc21)OCCCCC3 [Compound I-48] | 13 | 2431 | 2784
0.002 | CC(C)N1CCc2cc3cc(c2C1)CCCCCOc1nc(N)c2[nH]c(=O)n(c2n1)C3 [Compound I-50] | 1509 | 2615 | 2173
0.006 | Nc1nc2nc3c1[nH]c(=O)n3Cc1cc(c3c(c1)CCN(C1CCC1)C3)CCCCCO2 [Compound I-51] | 530 | 2759 | 2472
0.014 | Nc1nc2nc3c1[nH]c(=O)n3Cc1cc3c(c(c1)OCCCCO2)CCN(C1CCC1)C3 [Compound I-60] | 12 | 2412 | 3127
0.015 | Nc1nc2nc3c1[nH]c(=O)n3Cc1ccc(OC3CCNCC3)c(c1)C/C=C/CCO2 [Reference 1, reference compound] | 9 | 74 | 159
0.031 | Nc1nc2nc3c1[nH]c(=O)n3Cc1ccc(Oc3ccc(CNC4CC4)cc3)c(c1)C/C=C\CCO2 [Reference 2, reference compound] | 8 | 161 | 558
0.041 | Nc1nc2nc3c1[nH]c(=O)n3Cc1ccc(O)c(c1)C/C=C/CCO2 [Reference 3, reference compound] | 8 | 9 | 284
– | CCCCOc1nc(N)c2c(n1)N(Cc1cccc(CN3CCCC3)c1)CC(=O)N2 [Vesatolimod, reference compound] | – | 12 | 12
